Reference: patent EP1172104A1, “SEAM SOFT CAPSULE PREPARATIONS CONTAINING DIHYDROBENZOFURAN DERIVATIVE” (CHUGAI SEIYAKU KABUSHIKI KAISHA, priority 1999, dated 2000)

Key:
Type in all cases: physicochemical
[1] = Stability of BO-653 in various fat and oils (influence of oxygen, accelerated test at 80°C, HPLC); settings: 17 hours
Method: The influence of oxygen on the stability of BO-653 in various fat and oils was tested. BO-653 was dissolved in soybean oil, olive oil, MCT, tricaprylin, and linoleic acid separately to give a concentration of 50% by weight. 70 mg of each of the solutions was placed into individual 5 cc glass bottles. Separately, 35 mg of BO-653 was directly placed into a 5 cc glass bottle. The samples were prepared in duplicate. One set of samples were subjected to an argon replacement of the headspace of the bottles and then tightly sealed, while the other set of samples were sealed without argon replacement. Accelerated test at 80°C was conducted using all of the samples.

[2] = Stability of seamed soft capsule formulation of BO-653 (1): Formulations 1 and 2, accelerated tests, HPLC; settings: 100% oxygen atmosphere
Method: Formulations 1 and 2 obtained in Example 1 were tested for their stability under the conditions below: Condition 1: • Formulation 1 was left at 40°C in a 100% oxygen atmosphere. Condition 2: • Formulation 1 was left at 50°C in a 100% oxygen atmosphere. Condition 3: • Formulation 2 was left at 50°C in a 100% oxygen atmosphere.
As a control, BO-653 was dissolved in soybean oil to give a concentration of 10% by weight and the solution was left at 40°C in a 100% oxygen atmosphere in the form that the solution was not filled into a soft capsule.

[3] = Stability of seamed soft capsule formulations of BO-653 (2): Formulation 3, shell thickness and glycerin content, HPLC; settings: Formulation 3 (50% w/w in soybean oil)
Method: Formulation 3 obtained in Example 1 was stored at 50°C in a 100% oxygen atmosphere.

[4] = Stability of seamed soft capsule formulations of BO-653 (3): Formulation 4, various storage conditions, HPLC

residual ratio of BO-653 ([1]; 50% by weight in soybean oil, without argon replacement (presence of oxygen)): Relatively high stability | residual ratio of BO-653 ([1]; BO-653 alone or 50% by weight in soybean oil, olive oil, MCT, tricaprylin or linoleic acid, with argon replacement (absence of oxygen)): little loss | Residual ratio (%) of BO-653 ([2]; Condition 1: Formulation 1 (10% w/w in soybean oil, seamed soft capsule), 40°C, 1 month): 100.7% | Residual ratio (%) of BO-653 ([2]; Condition 2: Formulation 1 (10% w/w in soybean oil, seamed soft capsule), 50°C, 2 weeks): 99.6% | Residual ratio (%) of BO-653 ([2]; Condition 3: Formulation 2 (10% w/w in MCT, seamed soft capsule), 50°C, 3 weeks): 92.8% | Residual ratio (%) of BO-653 ([2]; Control: 10% by weight solution in soybean oil not filled into a soft capsule, 40°C, 1 month): < 0.2% | Content (%) of BO-653 after left at 50°C in a 100% oxygen atmosphere for 1 month ([3]; Capsule No. 1: thickness 26 x 10^-3 inch (66 x 10^-2 mm), glycerin content 30.0): 99.4% | Content (%) of BO-653 after left at 50°C in a 100% oxygen atmosphere for 1 month ([3]; Capsule No. 2: thickness 30 x 10^-3 inch (76 x 10^-2 mm), glycerin content 30.0): 99.9% | Content (%) of BO-653 after left at 50°C in a 100% oxygen atmosphere for 1 month ([3]; Capsule No. 3: thickness 34 x 10^-3 inch (86 x 10^-2 mm), glycerin content 30.0): 99.7% | Content (%) of BO-653 after left at 50°C in a 100% oxygen atmosphere for 1 month ([3]; Capsule No. 4: thickness 26 x 10^-3 inch (66 x 10^-2 mm), glycerin content 44.2): 98.8% | Content (%) of BO-653 after left at 50°C in a 100% oxygen atmosphere for 1 month ([3]; Capsule No. 5: thickness 30 x 10^-3 inch (76 x 10^-2 mm), glycerin content 44.2): 100.0% | Content (%) of BO-653 after left at 50°C in a 100% oxygen atmosphere for 1 month ([3]; Capsule No. 6: thickness 34 x 10^-3 inch (86 x 10^-2 mm), glycerin content 44.2): 100.8% | Content (%) of BO-653 after left at 50°C in a 100% oxygen atmosphere for 1 month ([3]; Capsule No. 8: thickness 30 x 10^-3 inch (76 x 10^-2 mm), glycerin content 56.4): 97.0% | Content (%) of BO-653 after left at 50°C in a 100% oxygen atmosphere for 1 month ([3]; Capsule No. 9: thickness 34 x 10^-3 inch (86 x 10^-2 mm), glycerin content 56.4): 98.8% | Residual ratio (%) of BO-653 ([4]; Formulation 4, BO-653 content in filling solution 4% by weight, 40°C, RH75% - 1M): 99.0% | Residual ratio (%) of BO-653 ([4]; Formulation 4, BO-653 content in filling solution 4% by weight, 50°C, 100% oxygen atmosphere-1M): 100.0% | Residual ratio (%) of BO-653 ([4]; Formulation 4, BO-653 content in filling solution 4% by weight, irradiation with 1,200,000 lux.hrs white light): 100.0% | Residual ratio (%) of BO-653 ([4]; Formulation 4, BO-653 content in filling solution 4% by weight, irradiation with 1,200,000 lux.hrs white light followed by 400 W.hrs/m^2 UV rays): 98.0% | Residual ratio (%) of BO-653 ([4]; Formulation 4, BO-653 content in filling solution 40% by weight, 40°C, RH75% - 1M): 100.1% | Residual ratio (%) of BO-653 ([4]; Formulation 4, BO-653 content in filling solution 40% by weight, 50°C, 100% oxygen atmosphere-1M): 100.7% | Residual ratio (%) of BO-653 ([4]; Formulation 4, BO-653 content in filling solution 40% by weight, irradiation with 1,200,000 lux.hrs white light): 100.0% | Residual ratio (%) of BO-653 ([4]; Formulation 4, BO-653 content in filling solution 40% by weight, irradiation with 1,200,000 lux.hrs white light followed by 400 W.hrs/m^2 UV rays): 99.7% | Residual ratio (%) of BO-653 ([4]; Formulation 4, BO-653 content in filling solution 80% by weight, 40°C, RH75% - 1M): 99.8% | Residual ratio (%) of BO-653 ([4]; Formulation 4, BO-653 content in filling solution 80% by weight, 50°C, 100% oxygen atmosphere-1M): 101.0% | Residual ratio (%) of BO-653 ([4]; Formulation 4, BO-653 content in filling solution 80% by weight, irradiation with 1,200,000 lux.hrs white light): 99.5% | Residual ratio (%) of BO-653 ([4]; Formulation 4, BO-653 content in filling solution 80% by weight, irradiation with 1,200,000 lux.hrs white light followed by 400 W.hrs/m^2 UV rays): 99.8%
Substance: 4,6-di-tert-butyl-2,2-di-n-pentyl-5-hydroxy-2,3-dihydrobenzofuran [BO-653]
